Here are results for 4 molecules from patent publication US20160076098A1, “METHODS OF DIAGNOSING AND TREATING CHRONIC PAIN” (priority 2013, published 2016).

Data set [1] has as its system miRNAs in blood of CRPS patients. The settings on record: blood of responders, after vs before ketamine treatment. As to the method:
The experiments described herein were conducted in order to determine the utility of miRNAs as biomarkers for CRPS in both the effectiveness of a treatment and the severity and progression of individual cases. As presented herein, the changes in levels of 758 miRNAs were examined in blood of 19 CRPS patients before and after ketamine treatment, using Taqman low-density array cards.
Ketamine Treatment Ketamine treatment was given to the subjects by sub-anesthetic continuous intravenous administration. Infusion started at a rate of 10 mg/hr and increased in steps of 10 mg/hr at every 2 hours to a maximum of 40 mg/hr (see FIG. 4). Blood samples were collected from CRPS patients before and after ketamine treatment. miRNA Analysis
Total RNA was isolated from blood samples using mirVana kit (Applied Biosystems) and cDNA synthesis was performed. Levels of 758 miRNAs were analyzed by using a Taqman low-density array (TLDA) card.
A positive fold change indicates a higher expression of the miRNA in responders, while a negative fold change indicates a lower expression of the miRNA in responders.

Data set [2] relates to MCP-1, IFNγ and IL-1β. The data set is described as follows: Inflammatory markers in CRPS patients following ketamine treatment. Format: in vivo, human. Conditions: p<0.05. The source says: Additional analysis comparing miRNA profiles from responders, non-responders and 20 control subjects enabled identification of additional miRNAs.
The subject of data set [3] is β-endorphin. The data set is described as follows: β-endorphin levels in plasma of CRPS patients before and after ketamine therapy. Format: in vivo, human. Conditions: after vs before ketamine therapy. How it is done:
FIG. 8 is a graph showing no significant difference in the basal (pre-treatment) plasma levels of β-endorphin between patients and healthy controls. […] Shown are β-endorphin levels in the plasma from CRPS patients (responders and non-responders to ketamine therapy) before treatment and healthy controls and in CRPS patients before and after ketamine therapy. Responders; n=11, non-responders; n=6 and control; n=5. Results represent mean±SEM. The statistical significance was calculated using one-way ANOVA*: p<0.05 relative to non-responders after treatment.
Analgesic pathway targets were selected for validation. Cross talk between analgesic and endocrinal systems is known (FIG. 6). Pro-opiomelanocortin (POMC) is a polypetide precursor of many peptide hormones in the hypothalamopitiutary axis, including Adrenocorticotrophic hormone (ACTH), Melanocyte stimulating hormone (MSH), and Beta-endorphin. Prohormone convertase cleaves POMC yielding important hormonal peptides ACTH, MSH, […] and β-endorphin. β-endorphin is an important member of the endogenous opioid system. Its release is important in modulation of mood, pain, inflammatory responses. Several studies have linked the expression of POMC and its daughter peptide β-endorphin to placebo effect. Non-Responders to ketamine therapy had increased expression of POMC mRNA in blood relative to the responders and healthy controls (FIG. 7). […]

Data set [4] has as its target CYP3A4 (Homo sapiens, UniProt P08684). Conditions: known route of elimination; cited from earlier work.
In data set [5] the test system is RAW 264.7 cells. The data set is described as follows: Exosomal RNA sequencing (NGS) of naive and LPS-stimulated RAW 264.7 cells. The settings on record: exosomal transcript level after LPS stimulation of RAW 264.7 cells compared with exosomes from naive cells. In kind it is cell-based, mouse. How it is done: RAW 264.7 cells (ATCC) and RAW-Blue cells (Invivogen) were maintained in complete culture media (1×DMEM, 10% heat inactivated FBS). For exosome collection, RAW 264.7 cells (1×10^7) were plated in 150 mm dishes with complete culture media. At 24 hr, media was replaced with exosome-depleted media (1×DMEM, 10% heat-inactivated FBS depleted of exosomes by ultracentrifugation) with or without 1 μg/ml LPS (Sigma)) and incubated overnight. Media was collected in 50 ml tubes at 24 hr for exosome purification. Human THP1 macrophages were used in some experiments.
Exosome purification from cell culture media was performed as described (McDonald et al., 2013, J Visualized Exp 2013(76):e50294). […]
The SOLiD whole transcriptome analysis kit protocol with the fragmentation step omitted was used to generate a cDNA library for each sample. […] RNA concentration was measured using Nanodrop 1000 (NanoDrop Technologies, Wilmington, Del.). Total RNA from 3 independent exosome purifications was pooled to obtain 4 μg exosomal RNA per library (due to a limited amount of RNA in individual preparations), analyzed for integrity using the Agilent RNA 6000 Pico Kit (RNA integrity number between 1.6 and 2.1), and gel purified. […]

Data set [6] concerns exosomes from human serum. Description: miRNA profiling of human serum-derived exosomes, patients with CRPS vs control subjects (TLDA cards). How it is done: Exosome purification from cell culture media was performed as described (McDonald et al., 2013, J Visualized Exp 2013(76):e50294). Centrifugation was used to remove cell debris (500×g for 10 min); the supernatant was transferred and centrifuged (16,500×g for 20 min) Cell-free supernatants were filtered (0.22 μm; VWR, Radnor, Pa.) and exosomes were pelleted by ultracentrifugation (120,000×g for 70 min) The exosomal pellet was resuspended in buffer specific to downstream experiments and vortexed 2×15 seconds. For RNA purification, RNase inhibitors were added after the first centrifugation step at 1 U/ml (RNAsin Plus; Promega, Madison, Wis.) and at all subsequent steps at 1 U/μl. […]
TLDA microfluidic cards (Life Technologies) were used for miRNA profiling as previously described. […] For miRNAs profiled from exosomes collected from RAW 264.7 cells, significance was determined by applying a P value cutoff of 0.05 to the results of a paired-samples t test. For human exosomal miRNAs, significance was determined by applying the Benjamini-Hochberg false discovery rate correction to the results of a 2-tailed t test.
To determine whether exosomal miRNAs reflect the miRNA signature in whole blood of patients with CRPS, miRNAs in exosomes purified from the serum of 6 patients with CRPS and 6 healthy controls we analyzed (FIG. 38).

Setting [7] is: negative = lower expression following treatment.

Chain of CYP3A4 (P08684 whole entry): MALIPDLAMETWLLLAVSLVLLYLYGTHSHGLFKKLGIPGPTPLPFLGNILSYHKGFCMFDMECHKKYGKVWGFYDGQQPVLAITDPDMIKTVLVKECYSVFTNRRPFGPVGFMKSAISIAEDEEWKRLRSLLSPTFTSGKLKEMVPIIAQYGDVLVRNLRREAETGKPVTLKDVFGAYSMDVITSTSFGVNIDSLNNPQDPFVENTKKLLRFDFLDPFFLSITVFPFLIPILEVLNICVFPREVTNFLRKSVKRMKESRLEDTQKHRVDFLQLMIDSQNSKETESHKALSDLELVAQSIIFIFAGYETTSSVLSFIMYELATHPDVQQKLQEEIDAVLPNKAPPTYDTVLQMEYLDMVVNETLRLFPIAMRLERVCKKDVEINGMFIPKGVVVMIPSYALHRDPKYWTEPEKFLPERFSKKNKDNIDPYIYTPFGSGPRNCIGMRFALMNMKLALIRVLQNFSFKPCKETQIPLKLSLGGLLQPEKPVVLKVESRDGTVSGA

For `CNC1(c2ccccc2Cl)CCCCC1=O` (stereo not drawn) [ketamine], in data set [1] (setting [7]), the “Fold change RNU44.A” value is given as −1.80, the “Fold change hsa-miR-337-3p” value is given as −18.20, the “Fold change hsa-miR-597” value is −16.23 and the “Fold change hsa-miR-605” value is −36.08. In addition, in data set [1] (positive = higher expression following treatment), the “Fold change hsa-miR-650” value turned out to be 8.01. Also, in data set [2], the IFNγ level entry is “decreased significantly”, the IL-1β level entry is on record as “decreased significantly” and the MCP-1 level entry is reported as “decreased significantly”. The β-endorphin plasma level result in data set [3] (non-responders) is “but not the non-responders”. Also, the β-endorphin plasma level entry in data set [3] (responders) is listed as “induced an increase in β-endorphin”. For the same molecule, the Metabolism result in data set [4] was “demethylated mostly by CYP3A4 followed by conjugation with glucuronic acid”.
Take Pgcp: the PS/cpntrol ratio in data set [5] is listed as 2.94.
Still for that read-out and setting: next, Gdf11: 4.82.
“RNU48 (GAUGACCCCAGGUAACUCUGAGUGUGUCGCUGAUGCCAUCACCGCAGCGCUCUGACC; chemistry not fully specified; listed as Homo sapiens)”: in data set [6], the ddct amounted to 2.147 and the fold-change is −4.429.
